Reference: patent publication US7807701B2, “Dibenzylamine compounds and pharmaceutical use thereof” (Japan Tobacco Inc., priority 2002, dated 2010)
Counter-ions that a name gives are not always drawn.

Biological target: T1, CETP (Homo sapiens, UniProt P11597)
T1 construct: The donor lipoprotein obtained above was added to plasma of healthy subject; from tissue; host or cells: whole plasma of healthy subject
T1 sequence (P11597 18-493): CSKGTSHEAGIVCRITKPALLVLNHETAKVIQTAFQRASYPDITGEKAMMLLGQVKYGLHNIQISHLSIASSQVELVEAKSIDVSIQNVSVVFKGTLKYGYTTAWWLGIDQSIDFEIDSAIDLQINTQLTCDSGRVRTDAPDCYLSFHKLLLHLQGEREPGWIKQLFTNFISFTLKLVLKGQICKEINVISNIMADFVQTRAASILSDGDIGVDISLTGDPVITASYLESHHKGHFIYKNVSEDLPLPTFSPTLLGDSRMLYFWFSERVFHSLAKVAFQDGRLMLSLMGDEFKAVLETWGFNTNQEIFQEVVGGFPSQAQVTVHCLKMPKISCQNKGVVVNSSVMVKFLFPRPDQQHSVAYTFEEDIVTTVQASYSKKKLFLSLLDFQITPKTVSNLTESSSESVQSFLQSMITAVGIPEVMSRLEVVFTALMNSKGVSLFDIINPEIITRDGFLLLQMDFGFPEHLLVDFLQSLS
Test: Inhibitory effect in vitro on CETP activity in total plasma
Type: biochemical
Conditions: plasma of healthy subject with [3H]CE-HDL3, 37° C., 4 hr; average values
Procedure: Potassium bromide (KBr) was added to plasma (40 mL) of healthy subject and the mixture was adjusted to have a specific density d=1.125 g/mL. The mixture was subjected to density gradient centrifugation (227,000×g, 4° C., 17 hr) and a fraction showing a specific density of d>1.125 g/mL (HDL3 fraction) was harvested. The obtained fraction was dialyzed against PBS solution [10 mmol/L Na2HPO4; 10 mmol/L NaH2PO4; 0.15 mol/L NaCl; […] (pH 7.4)]. Then, tritium-labeled cholesterol (37 MBq) was dissolved in 95% ethanol, gradually added to the above-mentioned HDL3 fraction with stirring and incubated at 37° C. for 18 hr. [By this operation, tritium-labeled cholesterol was esterified by the action of lecithin acyl transferase (LCAT) present on the HDL3 surface and taken up into HDL3 as tritium-labeled cholesteryl ester ([^3H]CE)]. After incubation, KBr was added, the mixture was adjusted to have a specific density d=1.21 g/mL, subjected to density gradient centrifugation (227,000×g, 4° C., 17 hr) and a fraction of specific density […] was harvested. The obtained fraction was dialyzed against the aforementioned PBS solution to give HDL3 incorporating [^3H]CE ([^3H]CE-HDL3, specific density: 1.125<d<1.21, specific activity: 10,000 dpm/μL), which was used as a donor lipoprotein.
The donor lipoprotein obtained above was added to plasma of healthy subject to prepare a [^3H]CE-HDL3-containing plasma (1,000 dpm/μL). The compound was dissolved in dimethyl formamide. A solution of the compound or a solvent alone (2 μL) and the [^3H]CE-HDL3-containing plasma (100 μL) were added into a microtube, and this was incubated at 37° C. or 4° C. for 4 hr. After ice-cooling, TBS solution [100 μL, 20 mmol/L Tris; 0.15 mol/L NaCl (pH 7.4)] containing 1 mol/L magnesium chloride and 2% dextran sulfate was added to each microtube and the mixture was thoroughly stirred. After keeping at 4° C. for 30 min, the mixture was centrifuged (10,000×g, 4° C., 10 min), and the radioactivity in the obtained supernatant (HDL fraction) was measured with a scintillation counter. […] The concentration of the compound necessary for inhibiting the CETP activity by 50% was calculated as an IC50 value.

`CCN(CC1CCCC1)c1cc2c(cc1CN(Cc1cc(C(F)(F)F)cc(C(F)(F)F)c1)c1nnn(C)n1)CCCC2` [Example 1, N-[3-(N′-cyclopentylmethyl-N′-ethylamino)-5,6,7,8-tetrahydronaphthalen-2-ylmethyl]-N-[3,5-bis(trifluoromethyl)benzyl]-(2-methyl-2H-tetrazol-5-yl)amine] and `CCN(CC1CCCC1)c1cc2c(cc1CN(Cc1cc(C(F)(F)F)cc(C(F)(F)F)c1)c1nnn(C)n1)CCC2` [Example 3, N-[3,5-bis(trifluoromethyl)benzyl]-N-[6-(N′-cyclopentylmethyl-N′-ethylamino)indan-5-ylmethyl]-(2-methyl-2H-tetrazol-5-yl)amine] are within 1.5-fold of each other in IC50: 230 nM for the first, 240 nM for the second.

Compared with `CCN(CC1CCCC1)c1cc2c(cc1CN(Cc1cc(C#N)cc(C(F)(F)F)c1)c1nnn(C)n1)CCCC2` [Example 2, 3-{[N-[3-(N′-cyclopentylmethyl-N′-ethylamino)-5,6,7,8-tetrahydronaphthalen-2-ylmethyl]-N-(2-methyl-2H-tetrazol-5-yl)amino]methyl}-5-trifluoromethylbenzonitrile], `CCN(CC1CCCC1)c1cc2c(cc1CN(Cc1cc(C#N)cc(C(F)(F)F)c1)c1nnn(C)n1)CCC2` [Example 10, 3-{[N-[6-(N′-cyclopentylmethyl-N′-ethylamino)indan-5-ylmethyl]-N-(2-methyl-2H-tetrazol-5-yl)amino]methyl}-5-trifluoromethylbenzonitrile] is 2.9-fold higher in IC50: 80 nM for the first, 230 nM for the second. The first is the more potent here.

First: CCN(CC1CCCC1)c1cc2c(cc1CN(Cc1cc(C(F)(F)F)cc(C(F)(F)F)c1)c1nnn(C)n1)CCC2 [Example 4, N-[3,5-bis(trifluoromethyl)benzyl]-N-[6-(N′-cyclopentylmethyl-N′-ethylamino)indan-5-ylmethyl]-(2-methyl-2H-tetrazol-5-yl)amine hydrochloride]
Second: CCN(CC1CCCC1)c1cc2c(cc1CN(Cc1cc(C(F)(F)F)cc(C(F)(F)F)c1)c1nnn(CC)n1)CCC2 [Example 11, N-[3,5-bis(trifluoromethyl)benzyl]-N-[6-(N′-cyclopentylmethyl-N′-ethylamino)indan-5-ylmethyl]-(2-ethyl-2H-tetrazol-5-yl)amine]
The IC50 of the first is 3.5-fold lower: 180 nM for the first, 630 nM for the second.

First: CCN(CC1CCCC1)c1cc2c(cc1CN(Cc1cc(C(F)(F)F)cc(C(F)(F)F)c1)c1cc(C)[nH]n1)CCC2 [Example 7, N-[6-(N′-cyclopentylmethyl-N′-ethylamino)indan-5-ylmethyl]-N-[3,5-bis(trifluoromethyl)benzyl]-(5-methyl-1H-pyrazol-3-yl)amine]
Second: CCN(CC1CCCC1)c1cc2c(cc1CN(Cc1cc(C(F)(F)F)cc(C(F)(F)F)c1)c1cc(C)no1)CCC2 [Example 26, N-[3,5-bis(trifluoromethyl)benzyl]-N-[6-(N′-cyclopentylmethyl-N′-ethylamino)indan-5-ylmethyl]-(3-methylisoxazol-5-yl)amine hydrochloride]
The IC50 of the first is 1.7-fold lower: 270 nM for the first, 470 nM for the second. The first is the more potent here.

Going from `CCN(CCCCC(=O)O)c1cc2c(cc1CN(Cc1cc(C(F)(F)F)cc(C(F)(F)F)c1)c1noc(C)n1)CCC2` [Example 8, 5-{N-(6-{[N′-[3,5-bis(trifluoromethyl)benzyl]-N′-(5-methyl-[1,2,4]oxadiazol-3-yl)amino]methyl}indan-5-yl)-N-ethylamino}pentanoic acid hydrochloride] to `CCN(CC1CCCC1)c1cc2c(cc1CN(Cc1cc(C(F)(F)F)cc(C(F)(F)F)c1)c1noc(C)n1)CCC2` [Example 46, N-[3,5-bis(trifluoromethyl)benzyl]-N-[6-(N′-cyclopentylmethyl-N′-ethylamino)indan-5-ylmethyl]-(5-methyl-[1,2,4]oxadiazol-3-yl)amine hydrochloride], the IC50 falls from 630 nM to 390 nM (1.6-fold). The second is the more potent here.

First: CCN(CC1CCCC1)c1cc2c(cc1CN(Cc1cc(C(F)(F)F)cc(C(F)(F)F)c1)c1ncn(C)n1)CCC2 [Example 12, N-[3,5-bis(trifluoromethyl)benzyl]-N-[6-(N′-cyclopentylmethyl-N′-ethylamino)indan-5-ylmethyl]-(1-methyl-1H-[1,2,4]triazol-3-yl)amine]
Second: CCN(CC1CCCC1)c1cc2c(cc1CN(Cc1cc(C(F)(F)F)cc(C(F)(F)F)c1)c1ccn(C)n1)CCC2 [Example 27, N-[3,5-bis(trifluoromethyl)benzyl]-N-[6-(N′-cyclopentylmethyl-N′-ethylamino)indan-5-ylmethyl]-(1-methyl-1H-pyrazol-3-yl)amine hydrochloride]
The IC50 of the first is 2.3-fold lower: 250 nM for the first, 580 nM for the second.

`CCN(CC1CCCC1)c1cc2c(cc1CN(Cc1cc(C#N)cc(C(F)(F)F)c1)c1ccccc1)CCC2` [Example 13, 3-({N-[6-(N′-cyclopentylmethyl-N′-ethylamino)indan-5-ylmethyl]-N-phenylamino}methyl)-5-trifluoromethylbenzonitrile] and `CCN(CC1CCCC1)c1cc2c(cc1CN(Cc1cc(C(F)(F)F)cc(C(F)(F)F)c1)c1cnn(C)c1)CCC2` [Example 28, N-[3,5-bis(trifluoromethyl)benzyl]-N-[6-(N′-cyclopentylmethyl-N′-ethylamino)indan-5-ylmethyl]-(1-methyl-1H-pyrazol-4-yl)amine hydrochloride] are within 1.5-fold of each other in IC50: 580 nM for the first, 440 nM for the second.

Going from `CCN(CC1CCCC1)c1ccc(C(F)(F)F)cc1CN(Cc1cc(C(F)(F)F)cc(C(F)(F)F)c1)c1nnn(C)n1` [Example 33, N-[3,5-bis(trifluoromethyl)benzyl]-N-[2-(N′-cyclopentylmethyl-N′-ethylamino)-5-trifluoromethylbenzyl]-(2-methyl-2H-tetrazol-5-yl)amine hydrochloride] to `CCN(CC1CCCC1)c1ccc(C(F)(F)F)cc1CN(Cc1cc(C#N)cc(C(F)(F)F)c1)c1nnn(C)n1` [Example 34, 3-{[N-[2-(N′-cyclopentylmethyl-N′-ethylamino)-5-trifluoromethylbenzyl]-N-(2-methyl-2H-tetrazol-5-yl)amino]methyl}-5-trifluoromethylbenzonitrile hydrochloride], the IC50 falls from 560 nM to 220 nM (2.5-fold). The second is the more potent here.

Going from `CCN(CCCCC(=O)OC)c1cc2c(cc1CN(Cc1cc(C#N)cc(C(F)(F)F)c1)c1nnn(C)n1)CCC2.Cl` [Example 36, hydrochloride] to `CCN(C[C@H]1CC[C@H](C(=O)OC)CC1)c1cc2c(cc1CN(Cc1cc(C#N)cc(C(F)(F)F)c1)c1ccn(C)n1)CCCC2` [Example 43, methyl trans-4-{[N-(3-{[N′-(3-cyano-5-trifluoromethylbenzyl)-N′-(1-methyl-1H-pyrazol-3-yl)amino]methyl}-5,6,7,8-tetrahydronaphthalen-2-yl)-N-ethylamino]methyl}cyclohexanecarboxylate hydrochloride], the IC50 rises from 340 nM to 550 nM (1.6-fold). The first is the more potent here.

Going from `CCN(C[C@H]1CC[C@H](C(=O)OC)CC1)c1cc2c(cc1CN(Cc1cc(C(F)(F)F)cc(C(F)(F)F)c1)c1ccn(C)n1)CCCC2` [Example 42, methyl trans-4-{[N-(3-{[N′-[3,5-bis(trifluoromethyl)benzyl]-N′-(1-methyl-1H-pyrazol-3-yl)amino]methyl}-5,6,7,8-tetrahydronaphthalen-2-yl)-N-ethylamino]methyl}cyclohexanecarboxylate hydrochloride] to `CCN(C[C@H]1CC[C@H](C(=O)O)CC1)c1cc2c(cc1CN(Cc1cc(C(F)(F)F)cc(C(F)(F)F)c1)c1ccn(C)n1)CCCC2` [Example 44, trans-4-{[N-(3-{[N′-[3,5-bis(trifluoromethyl)benzyl]-N′-(1-methyl-1H-pyrazol-3-yl)amino]methyl}-5,6,7,8-tetrahydronaphthalen-2-yl)-N-ethylamino]methyl}cyclohexanecarboxylic acid hydrochloride], the IC50 falls from 700 nM to 360 nM (1.9-fold).

`CCN(C[C@H]1CC[C@H](C(=O)O)CC1)c1cc2c(cc1CN(Cc1cc(C#N)cc(C(F)(F)F)c1)c1ccn(C)n1)CCCC2` [Example 45, trans-4-{[N-(3-{[N′-(3-cyano-5-trifluoromethylbenzyl)-N′-(1-methyl-1H-pyrazol-3-yl)amino]methyl}-5,6,7,8-tetrahydronaphthalen-2-yl)-N-ethylamino]methyl}cyclohexanecarboxylic acid hydrochloride] showed an IC50 of 490 nM.
